Key:
[1] = biological target: T1, Dihydroorotate dehydrogenase (fumarate) (Saccharomyces cerevisiae (strain ATCC 204508 / S288c), UniProt P28272); experiment: Enzymatic Assays
T1 sequence (P28272 whole entry): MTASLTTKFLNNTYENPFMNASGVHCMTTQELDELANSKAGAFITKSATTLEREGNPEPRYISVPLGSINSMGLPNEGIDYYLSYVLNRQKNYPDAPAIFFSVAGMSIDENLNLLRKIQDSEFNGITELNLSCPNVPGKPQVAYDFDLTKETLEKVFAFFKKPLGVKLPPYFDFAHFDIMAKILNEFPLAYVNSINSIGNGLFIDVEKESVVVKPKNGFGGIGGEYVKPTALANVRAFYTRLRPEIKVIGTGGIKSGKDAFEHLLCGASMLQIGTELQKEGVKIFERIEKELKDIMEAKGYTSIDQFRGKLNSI
Description: (§1) Type 2 DHODH activity was monitored with either the direct assay measuring the formation of orotate or via a chromogen reduction assay using DCIP. Although the extinction coefficient and absorption wavelength are preferable for the chromogen reduction assay, the inorganic electron acceptor DCIP can be utilized by DHODH as the final electron acceptor in lieu of CoQn when the endogenous substrate is at a low concentration. As such, the direct assay was used to measure the binding affinity of pfDHODH to CoQD and L-DHO. The enzymatic reaction was performed by varying the L-DHO concentration (1-400 μM) or CoQD concentration (1-200 μM) while keeping the other substrate constant and in excess.

[2] = biological target: T2, Dihydroorotate dehydrogenase (quinone), mitochondrial [100-517] (Plasmodium berghei (strain Anka), UniProt A0A509AEH5); experiment: Enzymatic Assays
T2 construct: 100-517
T2 sequence (A0A509AEH5 whole entry): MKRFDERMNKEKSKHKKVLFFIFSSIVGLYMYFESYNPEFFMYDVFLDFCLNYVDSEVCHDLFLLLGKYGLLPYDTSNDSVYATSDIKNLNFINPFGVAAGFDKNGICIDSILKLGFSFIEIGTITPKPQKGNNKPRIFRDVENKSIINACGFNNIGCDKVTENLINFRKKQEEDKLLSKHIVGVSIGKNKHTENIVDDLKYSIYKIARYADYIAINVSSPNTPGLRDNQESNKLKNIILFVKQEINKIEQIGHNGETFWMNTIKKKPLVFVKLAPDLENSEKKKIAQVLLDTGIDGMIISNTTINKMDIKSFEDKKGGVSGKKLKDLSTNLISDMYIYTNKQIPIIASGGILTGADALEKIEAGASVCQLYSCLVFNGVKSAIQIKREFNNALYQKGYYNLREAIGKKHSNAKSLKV
Description: as §1

## Cc1ccccc1/C=C/c1cc(O)c2ccccc2n1 [US8703811, 2]
[1]
  IC50: > 10 µM

## Fc1cc(I)ccc1Nc1ccnc2cc(Cl)ccc12 [US8703811, 4]
[2]
  IC50: > 10 µM

Reference: BindingDB's records for patent US8703811 (Genzyme, 2014)
